Values of other authors as cited in patent US20260216106A1, “DOSAGE FORM FOR INTRA-ARTICULAR INJECTION […] USE IN THE TREATMENT OF A JOINT DISEASE SUCH AS OSTEOARTHRITIS” (priority 2023, published 2026).

Conditions: literature (Niel et al 2006)

## COc1cc2c(c(OC)c1OC)-c1ccc(OC)c(=O)cc1[C@@H](NC(C)=O)CC2 [colchicine, N-[(7S)-1,2,3,10-tetramethoxy-9-oxo-6,7-dihydro-5H-benzo[a]heptalen-7-yl]acetamide]
  lethal dose: 0.8 mg/kg
  toxicity limit dose: 0.1 mg/kg
